# Test results from patent US20170088623A1, “Prophylaxis Against Cancer Metastasis” (Ingeneron, Inc., priority 2015, published 2017).
# What was measured:
# [1] = tested on: CXCR4 receptor; details: animal and human studies; cited from earlier work
# [2] = tested on: LCN2 expression in SKBr3 cells; experiment: LCN2 levels in HER2+ SKBr3 cells by Western blotting; type: cell-based, human; details: SKBr3 cells incubated with inhibitor
# Excerpt: FIGS. 3A-D depict experiments showing that LCN2 (NGAL) is a down-stream target of the HER2/PI-3K/AKT/NF-κB pathway.
# In addition, overexpression of dominant negative AKT led to reduced expression of LCN2, while overexpression of dominant active AKT increased LCN2 levels ([…]). […] Iannetti A, et al. “The neutrophil gelatinase-associated lipocalin (NGAL), a NF-kappaB-regulated gene, is a survival factor for thyroid neoplastic cells” Proc Natl Acad Sci USA 105(37) (2008) 14058.
SMILES,hematopoietic stem cell mobilization [1],LCN2 expression [2]
c1cc(CN2CCCNCCNCCCNCC2)ccc1CN1CCCNCCNCCCNCC1 [AMD3100],able to induce hematopoietic stem cell mobilization,–
Cc1ccc(S(=O)(=O)/C=C/C#N)cc1 [Bay11-7082],–,reduced in a dose-dependent manner
